Columns and labels:
HeLaS3 cells = assay: Measurement of cytotoxicity on cultivated human tumour cells (AlamarBlue); type: cell-based; settings: HeLa in Table 1; unit inferred
How it was run: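 HeLaS3 cervical cancer cells, 1000 cells/well in Ham's F12 with 10% FCS, exposed 72 h to compound (1% DMSO final) in triplicate. AlamarBlue added for further 7 h, fluorescence at ex 530/em 590 nm; IC50 from activity as percent of untreated control, medium-corrected.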

H460-VINC = assay: Cytotoxicity on H460-VINC cells (Table 1; method not given); type: cell-based; settings: H460-VINC of Table 1; unit inferred

SMILES	IC50 (HeLaS3 cells)	IC50 (H460-VINC)
COc1cc(C(=O)NC2CCN(C)CC2)ccc1Nc1ncc2c(n1)N(CCC(C)C)C(C)(C)C(=O)N2C [Example 162]	71 nM	903 nM
CC[C@@H]1C(=O)N(C)c2cnc(Nc3ccc(C(=O)NCCCN(C)C)cc3OC)nc2N1CCC(C)C [Example 164]	30 nM	975 nM
CC[C@@H]1C(=O)N(C)c2cnc(Nc3ccc(C(=O)NCCCN(CC)CC)cc3OC)nc2N1CCC(C)C [Example 165]	46 nM	668 nM
CC[C@@H]1C(=O)N(C)c2cnc(Nc3ccc(C(=O)NCCC4CCCN4C)cc3OC)nc2N1CCC(C)C (stereo partly shown) [Example 167]	34 nM	817 nM
CC[C@@H]1C(=O)N(C)c2cnc(Nc3ccc(C(=O)NCC(C)(C)CN(C)C)cc3OC)nc2N1CCC(C)C [Example 168]	42 nM	88 nM
CC[C@@H]1C(=O)N(C)c2cnc(Nc3ccc(C(=O)NCCCN4CCCCC4)cc3OC)nc2N1CCC(C)C [Example 169]	44 nM	503 nM
CC[C@@H]1C(=O)N(C)c2cnc(Nc3ccc(C(=O)NCCN4CCCC4)cc3OC)nc2N1CCC(C)C [Example 170]	45 nM	427 nM
CC[C@@H]1C(=O)N(C)c2cnc(Nc3ccc(C(=O)NC4CCN(C)CC4)cc3OC)nc2N1CCC(C)C [Example 171]	31 nM	790 nM

— patent publication US7786299B2, “Methods for treating diseases or conditions using dihydropteridinone compounds” (Boehringer Ingelheim Pharma GmbH & Co. KG, priority 2003, dated 2010)
